# Test results published in ChEMBL document CHEMBL1123411, “Ribose-modified adenosine analogues as adenosine receptor agonists” (J Med Chem, 1986).
# Experiments:
# Mus musculus [1] = species: Mus musculus; test: Dose required to inhibit mouse locomotor activity by 60%; assay type: functional
# Adenosine receptor A1 = target: T1, Adenosine receptor A1 (Rattus norvegicus, UniProt P25099); test: Binding affinity for adenosine A1 receptor in rat brain membranes using [3H]CHA as radioligand; assay type: cell membranes
# T1 sequence (P25099 whole entry): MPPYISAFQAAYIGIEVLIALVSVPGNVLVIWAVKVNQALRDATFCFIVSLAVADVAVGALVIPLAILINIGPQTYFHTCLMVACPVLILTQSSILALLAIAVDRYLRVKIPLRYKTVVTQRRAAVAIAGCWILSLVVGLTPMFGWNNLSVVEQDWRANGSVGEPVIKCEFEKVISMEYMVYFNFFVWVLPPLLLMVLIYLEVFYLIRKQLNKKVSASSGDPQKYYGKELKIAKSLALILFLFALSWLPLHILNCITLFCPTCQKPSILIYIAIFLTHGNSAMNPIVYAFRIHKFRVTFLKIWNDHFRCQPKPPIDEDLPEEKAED
# Mus musculus [2] = species: Mus musculus; test: CNS activity measured using screen test failure; assay type: functional
# Rattus norvegicus [3] = species: Rattus norvegicus; test: Cardiovascular activity (as 20% decrease in blood pressure).; assay type: functional
# Adenosine A2 receptor = Adenosine A2 receptor (Rattus norvegicus, UniProt P29276+P30543)
# Description: Binding affinity for adenosine A2 receptor in rat striatal membranes using [3H]NECA as radioligand
# Rattus norvegicus [4] = species: Rattus norvegicus; test: Cardiovascular activity (as 20% decrease in rate).; assay type: functional
# Rattus norvegicus [5] = species: Rattus norvegicus; test: Compound was evaluated for Cardiovascular activity (as 20% decrease in rate) in rats; assay type: functional; settings: Heart
Structure (SMILES),LAD (Mus musculus [1]) [mg/kg],Ki (Adenosine receptor A1) [nM],LAD (Mus musculus [2]) [mg/kg],ED20 (Rattus norvegicus [3]) [mg/kg],Ki (Adenosine A2 receptor) [µM],ED20 (Rattus norvegicus [4]) [mg/kg],ED20 (Rattus norvegicus [5]) [µg/kg]
C[C@H](Cc1ccccc1)Nc1ncnc2c1ncn2COCCO,>30,68000,>30,–,–,–,–
C[C@H](Cc1ccccc1)Nc1ncnc2c1ncn2C(CO)OC(O)CO (stereo not given in full),>100,> 10000,>100,0.9,> 10,> 10,–
C[C@H](Cc1ccccc1)Nc1[nH]cnc2ncnc1-2,100,9600,100,8,39,> 10,–
C[C@H](Cc1ccccc1)Nc1ncnc2c1ncn2C1CCCO1 (stereo not given in full),>100,1500,>100,> 3,8.2,> 3,–
C[C@H](Cc1ccccc1)Nc1ncnc2c1ncn2C[C@H](O)CO,>100,> 10000,>100,–,> 10,–,–
C[C@H](Cc1ccccc1)Nc1ncnc2c1ncn2[C@@H]1O[C@@H](CO)[C@@H](O)[C@H]1O,>100,–,>100,> 10,–,> 10,–
C[C@H](Cc1ccccc1)Nc1ncnc2c1ncn2[C@H]1C[C@H](O)[C@@H](CO)O1,>30,1900,>30,–,–,–,–
C[C@H](Cc1ccccc1)Nc1ncnc2c1ncn2[C@@H]1O[C@H](CO)C[C@H]1O,100,29,100,0.8,6.9,0.4,–
C[C@H](Cc1ccccc1)Nc1ncnc2c1ncn2C[C@@H](O)CO,>100,> 10000,>100,> 10,> 10,> 10,–
C[C@H](Cc1ccccc1)Nc1ncnc2c1ncn2C1CCCCO1 (stereo not given in full),100,1200,>100,–,38,–,–
C[C@H](Cc1ccccc1)Nc1ncnc2c1ncn2C1CCCC(O)C1O (stereo not given in full),>100,15000,>100,> 3,> 10,> 3,–
C[C@H](Cc1ccccc1)Nc1ncnc2c1ncn2C1OCC(O)C(O)C1O (stereo not given in full),–,5700,–,–,> 100,–,–
C[C@H](Cc1ccccc1)Nc1ncnc2c1ncn2CC(O)C(O)C(O)CO (stereo not given in full),>100,> 2200,>100,10,> 100,> 10,–
C[C@H](Cc1ccccc1)Nc1ncnc2c1ncn2C1O[C@H](C)[C@@H](O)[C@H]1O (stereo not given in full),30,25,100,0.05,3.3,> 0.3,–
C[C@H](Cc1ccccc1)Nc1ncnc2c1ncn2C1OC[C@](O)(CO)[C@H]1O (stereo not given in full),–,> 10000,–,–,> 50,–,–
CSC[C@H]1OC(n2cnc3c(N[C@H](C)Cc4ccccc4)ncnc32)[C@H](O)[C@@H]1O (stereo not given in full),>100,29,>100,0.023,56,3,–
C[C@H](Cc1ccccc1)Nc1ncnc2c1ncn2C1O[C@H](CCl)[C@@H](O)[C@H]1O (stereo not given in full),10,1.6,100,0.1,1.9,0.08,–
C[C@H](Cc1ccccc1)Nc1ncnc2c1ncn2[C@@H]1O[C@H](CO)[C@@H](O)[C@H]1O [(R)-PIA],1,–,3,–,–,–,6
